Tests used:
[1] = tested on: KRas-mediated phosphorylation of ERK in H460 cells; assay: Inhibition of KRas-mediated phosphorylation of ERK (Cisbio HTRF pERK), H460 cells; assay type: cell-based; conditions: Homo sapiens; for inhibition at 0.1 µM: NCI-H460, 3 h, single point, 100 nM compound, 3 hrs; for IC50: NCI-H460, HTRF pERK
Protocol: (§1) Inhibition of KRas Phosphorylation of ERK (HTRF) by Exemplary Compounds of Formula (I) Cisbio HTRF Advanced PERK Assay Catalog #64[…] […] Add 10 mL of media to stop trypsinizing. Pipette the cells into a conical bottom 50 mL centrifuge tube and centrifuge 5 min×1000 rpm. […] Re-suspend the cell pellet in media, take a cell count, and then adjust the cell density using fresh media. […] Seed 6,000 cells into cell culture plate with 50 μL media. […] Use Tecan to complete the compound addition. Compounds start from 10 uM top, 3-fold dilution, and 10 doses. The final DMSO concentration is 0.8%. Dispensed 0.2 uM Trametinib as Min control. […] Incubate cell plate for 3 hrs in the incubator. […] Dilute 1 volume of 4× lysis buffer with 3 volumes of deionized water. […] Keep lysis buffer on the ice. […] At the end of the compound treatment, flick-off the media. […] Add 35 μL of lysis buffer per well using a Multidrop Combi. Then place on a plate agitator shaking at 300 rpm at 4° C. for 40 mins. […] Make up the HTRF antibody buffer. For each assay plate, mix 50 μL of d2-conjugate antibody with 950 μL of detection buffer. Similarly, mix 50 μL of Cryptate antibody with 950 μL of detection buffer. Then mix the two diluted antibodies together. […] Dispense 3.4 μL the antibody buffer to wells of an empty assay plate. Seal the plate and centrifuge plate 30 sec×1000 rpm. […] At the end of the 4° C. lysis, centrifuge the lysate plates 3 mins×1500 rpm. […] Use the Bravo to transfer 13.6 μL of lysate from cell culture plate to assay plate. Then incubate assay plate for 2 hrs at room temperature. 8. At the end of incubation, read plate on the Envision after centrifuging plate 30 sec×1000 rpm.

[2] = tested on: KRas-mediated phosphorylation of ERK in HCT116 cells; assay: Inhibition of KRas-mediated phosphorylation of ERK (Cisbio HTRF pERK), HCT116 cells; assay type: cell-based; conditions: Homo sapiens; for inhibition at 0.1 µM: HCT-116, 3 h, single point, 100 nM compound, 3 hrs; for IC50: HCT-116, HTRF pERK
Protocol: as §1

KRas^G12D = target: T1, KRas^G12D (Homo sapiens, UniProt P01116, G12D); assay: KRas binding assay (TR-FRET tracer displacement), KRas G12D
T1 construct: Biotinylated KRas (corresponding to amino acids 1-169, produced at Accelegan Inc.); biotin (biotinylated); purchased Accelegan Inc
T1 sequence (P01116 1-169 isoform P01116-2 G12D): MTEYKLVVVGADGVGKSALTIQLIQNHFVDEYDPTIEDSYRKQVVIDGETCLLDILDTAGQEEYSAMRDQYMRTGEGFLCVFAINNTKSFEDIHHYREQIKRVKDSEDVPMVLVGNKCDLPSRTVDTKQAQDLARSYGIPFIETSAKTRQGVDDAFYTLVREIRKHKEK

[3] = tested on: KRas-mediated phosphorylation of ERK in AsPC-1 cells; assay: Inhibition of KRas-mediated phosphorylation of ERK (Cisbio HTRF pERK), AsPC-1 cells; assay type: cell-based; conditions: Homo sapiens; for IC50: ASPC1, AsPC-1 cells, HTRF pERK; for inhibition at 0.1 µM: ASPC1, 3 h, single point, 100 nM compound, 3 hrs, AsPC-1 cells
How it was run: (§2)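 H358, H727, H460 and AsPC-1 cells seeded at 6,000/well, treated 3 hrs with 10-dose 3-fold dilutions from 10 uM (0.8% DMSO); 0.2 uM trametinib as min control. Lysed 40 min at 4° C; lysate incubated 2 hrs at room temperature with d2/cryptate antibodies, HTRF read.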

[4] = tested on: KRas-mediated phosphorylation of ERK in H727 cells; assay: Inhibition of KRas-mediated phosphorylation of ERK (Cisbio HTRF pERK), H727 cells; assay type: cell-based; conditions: Homo sapiens; for IC50: NCI-H727, H727 cells, HTRF pERK; for inhibition at 0.1 µM: NCI-H727, 3 h, single point, 100 nM compound, 3 hrs, H727 cells
How it was run: as §2

KRas^G12V = target: T2, KRas^G12V (Homo sapiens, UniProt P01116, G12V); assay: KRas binding assay (TR-FRET tracer displacement), KRas G12V
T2 construct: Biotinylated KRas (corresponding to amino acids 1-169, produced at Accelegan Inc.); biotin (biotinylated); purchased Accelegan Inc
T2 sequence (P01116 1-169 isoform P01116-2 G12V): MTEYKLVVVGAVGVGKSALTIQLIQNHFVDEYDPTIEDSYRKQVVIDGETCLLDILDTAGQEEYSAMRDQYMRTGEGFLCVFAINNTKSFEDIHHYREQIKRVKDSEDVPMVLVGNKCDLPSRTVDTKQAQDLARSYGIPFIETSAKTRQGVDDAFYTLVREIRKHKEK

KRas^G12R = target: T3, KRas^G12R (Homo sapiens, UniProt P01116, G12R); assay: KRas binding assay (TR-FRET tracer displacement), KRas G12R
T3 construct: Biotinylated KRas (corresponding to amino acids 1-169, produced at Accelegan Inc.); biotin (biotinylated); purchased Accelegan Inc
T3 sequence (P01116 1-169 isoform P01116-2 G12R): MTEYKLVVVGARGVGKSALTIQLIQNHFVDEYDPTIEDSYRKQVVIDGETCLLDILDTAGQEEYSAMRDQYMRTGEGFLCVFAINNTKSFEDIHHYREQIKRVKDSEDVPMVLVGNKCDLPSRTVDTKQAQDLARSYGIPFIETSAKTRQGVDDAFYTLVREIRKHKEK

[5] = tested on: KRas-mediated phosphorylation of ERK in A549 cells; assay: Inhibition of KRas-mediated phosphorylation of ERK (Cisbio HTRF pERK), A549 cells; assay type: cell-based; conditions: Homo sapiens, HTRF pERK
Protocol: as §1

Row | IC50 (KRas^G12D) | IC50 [3] | IC50 [4] | IC50 (KRas^G12V) | IC50 (KRas^G12R) | IC50 [1] | IC50 [2] | IC50 [5] | SMILES | inhibition at 0.1 µM [1] | inhibition at 0.1 µM [2] | inhibition at 0.1 µM [3] | inhibition at 0.1 µM [4]
1 | – | 198 nM | 240 nM | – | – | 107 nM | 208 nM | 216 nM | CCc1c(F)ccc2cc(O)cc(-c3ncc4c(N5CCC[C@H](C)C5)nc(OC[C@@]56CCCN5C[C@H](F)C6)nc4c3F)c12 [Example 541, 5-ethyl-6-fluoro-4-(8-fluoro-2-(((2R,7aS)-2-fluorohexahydro-1H-pyrrolizin-7a-yl)methoxy)-4-((S)-3-methylpiperidin-1-yl)pyrido[4,3-d]pyrimidin-7-yl)naphthalen-2-ol] | – | – | – | –
2 | 3 nM | 760 nM | 138 nM | 3 nM | < 2 nM | 47 nM | 72 nM | 130 nM | CCc1c(F)ccc2cc(O)cc(-c3ncc4c(NCC5(C)CC(=O)NC5=O)nc(OC[C@@]56CCCN5C[C@H](F)C6)nc4c3F)c12 (stereo partly drawn) [Example 566, 3-(((7-(8-ethyl-7-fluoro-3-hydroxynaphthalen-1-yl)-8-fluoro-2-(((2R,7aS)-2-fluorotetrahydro-1H-pyrrolizin-7a(5H)-yl)methoxy)pyrido[4,3-d]pyrimidin-4-yl)amino)methyl)-3-methylpyrrolidine-2,5-dione] | – | – | – | –
3 | 45 nM | – | > 10000 nM | 10 nM | 37 nM | – | – | – | CCc1c(F)ccc2cc(O)cc(-c3ncc4c(NC[C@@H]5C[C@H](CO)NC5=O)nc(OC[C@@]56CCCN5C[C@H](F)C6)nc4c3F)c12 [Example 576, (3S,5R)-3-(((7-(8-ethyl-7-fluoro-3-hydroxynaphthalen-1-yl)-8-fluoro-2-(((2R,7aS)-2-fluorotetrahydro-1H-pyrrolizin-7a(5H)-yl)methoxy)pyrido[4,3-d]pyrimidin-4-yl)amino)methyl)-5-(hydroxymethyl)pyrrolidin-2-one] | -3% | -15% | 1% | -2%
4 | 313 nM | 4640 nM | 3720 nM | 139 nM | 257 nM | – | – | – | CCc1c(F)ccc2cc(O)cc(-c3ncc4c(N5CC6COCC(CO)(C5)C6(F)F)nc(OC[C@@]56CCCN5C[C@H](F)C6)nc4c3F)c12 (stereo partly drawn) [Example 645, 4-(4-(9,9-difluoro-1-(hydroxymethyl)-3-oxa-7-azabicyclo[3.3.1]nonan-7-yl)-8-fluoro-2-(((2R,7aS)-2-fluorotetrahydro-1H-pyrrolizin-7a(5H)-yl)methoxy)pyrido[4,3-d]pyrimidin-7-yl)-5-ethyl-6-fluoronaphthalen-2-ol] | 4% | 6% | – | –

Continued, molecule first:

Row | SMILES | IC50 (KRas^G12D) | IC50 [3] | IC50 [4] | IC50 (KRas^G12V) | IC50 (KRas^G12R) | IC50 [1] | IC50 [2] | IC50 [5] | inhibition at 0.1 µM [1] | inhibition at 0.1 µM [2] | inhibition at 0.1 µM [3] | inhibition at 0.1 µM [4]
5 | CCc1c(F)ccc2cc(O)cc(-c3ncc4c(N5CCC[C@@](C)(O)C5)nc(OCC5(CN)CC5)nc4c3F)c12 [Example 536, (R)-1-(2-((1-(aminomethyl)cyclopropyl)methoxy)-7-(8-ethyl-7-fluoro-3-hydroxynaphthalen-1-yl)-8-fluoropyrido[4,3-d]pyrimidin-4-yl)-3-methylpiperidin-3-ol] | 5 nM | 4550 nM | 3440 nM | 5 nM | 9 nM | – | – | – | -9% | 9% | – | –
6 | CCc1c(F)ccc2cc(O)cc(-c3ncc4c(NC5CC6(CCCO6)C5)nc(OC[C@@]56CCCN5C[C@H](F)C6)nc4c3F)c12 (stereo partly drawn) [Example 554, 4-(4-(5-oxaspiro[3.4]octan-2-ylamino)-8-fluoro-2-(((2R,7aS)-2-fluorohexahydro-1H-pyrrolizin-7a-yl)methoxy)pyrido[4,3-d]pyrimidin-7-yl)-5-ethyl-6-fluoronaphthalen-2-ol] | 79 nM | 2380 nM | 410 nM | 9 nM | 10 nM | – | – | 742 nM | – | – | – | –
7 | CCc1c(F)ccc2cc(O)cc(-c3ncc4c(N5CCC[S+]([O-])CC5)nc(OC[C@@]56CCCN5C[C@H](F)C6)nc4c3F)c12 (stereo partly drawn) [Example 558, 4-(7-(8-ethyl-7-fluoro-3-hydroxynaphthalen-1-yl)-8-fluoro-2-(((2R,7aS)-2-fluorohexahydro-1H-pyrrolizin-7a-yl)methoxy)pyrido[4,3-d]pyrimidin-4-yl)-1,4-thiazepane 1-oxide] | < 2 nM | 312 nM | 603 nM | < 2 nM | < 2 nM | – | – | 822 nM | – | – | – | –
8 | CCc1c(F)ccc2cc(O)cc(-c3ncc4c(N5CC6C(=O)NC(=O)C6C5C)nc(OC[C@@]56CCCN5C[C@H](F)C6)nc4c3F)c12 (stereo partly drawn) [Example 590, 5-(7-(8-ethyl-7-fluoro-3-hydroxynaphthalen-1-yl)-8-fluoro-2-(((2R,7aS)-2-fluorohexahydro-1H-pyrrolizin-7a-yl)methoxy)pyrido[4,3-d]pyrimidin-4-yl)-4-methyltetrahydropyrrolo[3,4-c]pyrrole-1,3(2H,3aH)-dione] | 2 nM | 505 nM | 833 nM | 3 nM | 2 nM | – | – | 494 nM | – | – | – | –
9 | CCc1c(F)ccc2cc(O)cc(-c3ncc4c(N5C[C@H]6C[C@@H](C5)C(=O)NC6=O)nc(OC[C@@]56CCCN5C[C@H](F)C6)nc4c3F)c12 [Example 591, (1R,5S)-7-(7-(8-ethyl-7-fluoro-3-hydroxynaphthalen-1-yl)-8-fluoro-2-(((2R,7aS)-2-fluorotetrahydro-1H-pyrrolizin-7a(5H)-yl)methoxy)pyrido[4,3-d]pyrimidin-4-yl)-3,7-diazabicyclo[3.3.1]nonane-2,4-dione] | – | 1540 nM | 245 nM | – | – | 138 nM | – | 357 nM | – | – | – | –
10 | CCc1c(F)ccc2cc(O)cc(-c3ncc4c(NC5CCCc6c(C(=O)N(C)C)nn(C)c65)nc(OC[C@@]56CCCN5C[C@H](F)C6)nc4c3F)c12 (stereo partly drawn) [Example 672, 7-((7-(8-ethyl-7-fluoro-3-hydroxynaphthalen-1-yl)-8-fluoro-2-(((2R,7aS)-2-fluorohexahydro-1H-pyrrolizin-7a-yl)methoxy)pyrido[4,3-d]pyrimidin-4-yl)amino)-N,N,1-trimethyl-4,5,6,7-tetrahydro-1H-indazole-3-carboxamide] | 8 nM | 469 nM | 1260 nM | 5 nM | 4 nM | – | – | 541 nM | – | – | – | –
11 | CCc1c(F)ccc2cc(O)cc(-c3ncc4c(N5CCC[C@@](C)(O)C5)nc(OCC5(CN(C)C)CC5C)nc4c3F)c12 (stereo partly drawn) [Example 702, (3R)-1-(2-((1-((dimethylamino)methyl)-2-methylcyclopropyl)methoxy)-7-(8-ethyl-7-fluoro-3-hydroxynaphthalen-1-yl)-8-fluoropyrido[4,3-d]pyrimidin-4-yl)-3-methylpiperidin-3-ol] | – | 32 nM | 149 nM | – | – | – | – | – | 61% | 37% | 56% | 7%
12 | CCc1c(F)ccc2cc(O)cc(-c3ncc4c(N5CC6CCC(CCC(N)=O)(C6)C5)nc(OC[C@@]56CCCN5C[C@H](F)C6)nc4c3F)c12 (stereo partly drawn) [Example 910, 3-(3-(7-(8-ethyl-7-fluoro-3-hydroxynaphthalen-1-yl)-8-fluoro-2-(((2R,7aS)-2-fluorotetrahydro-1H-pyrrolizin-7a(5H)-yl)methoxy)pyrido[4,3-d]pyrimidin-4-yl)-3-azabicyclo[3.2.1]octan-1-yl)propanamide] | 22 nM | 8160 nM | 1670 nM | 8 nM | 9 nM | – | – | – | – | – | – | –
